Common to all, as to experiment: Minimum inhibitory concentration (MIC) and checkerboard assay
Holding throughout (type): cell-based
Holding throughout (settings): unit assumed

Experiment [1] has as its system Escherichia coli (ATCC 8739). An excerpt: (§1) Escherichia coli (ATCC 8739), Staphylococcus aureus (ATCC 6538), P. aeruginosa (ATCC 9027), Candida albicans (ATCC 10231), and Aspergillus brasiliensis (ATCC 16404) were obtained from ATCC and cultured according to the manufacturer's instructions. These microorganisms are routinely used for minimum inhibitory concentration (MIC), checkerboards and challenge tests according to the US and EU recommendations for the efficacy of preservatives in the cosmetic industry. Bacterial strains were maintained in tryptic soy agar (TSA) (Hy-labs, Rehovot, Israel), while yeast and mold strains were maintained in sabouraud dextrose agar (SDA) (Hy-labs, Israel), supplemented with oxytetracycline at a concentration of 1% (Hy-labs, Israel). […] Briefly, growth of E. coli, S. aureus, P. aeruginosa, P. gergoviea, B. cepacia, C. albicans, and A. brasiliensis was observed during incubation with two-fold serial dilutions of the abovementioned compounds in Mueller Hinton (MH) broth, using a 96-well plate (BIOFUL, Israel). For the checkerboard assay using a 96-well plate, decreasing concentrations of one compound were added from top to bottom of the plate using serial dilutions. Decreasing concentrations of the second compound were added to the plate from the right, having the highest concentration, to the left side of the plate with the lowest concentration. […] Bacteria inoculated plates were incubated for 24 h at 32° C. with shaking, while fungi inoculated plates were incubated at 23° C. for 48-72 h with shaking. Microorganism growth was evaluated by a spectrophotometer O.D. reads (BioTek, Israel). The culture is standardized using standard microbiological techniques to have a concentration of very near 1 million cells per milliliter. The antimicrobial agent is diluted a number of times, with Tryptic soy broth or Sabouraud broth for fungi. After the antimicrobial agent had been diluted, a volume of the standardized inoculums was added to each dilution vessel, bringing the microbial concentration to approximately 1,000,000 cells per milliliter. The inoculated, serially diluted antimicrobial agent was incubated at an appropriate temperature for the test organism, 24 hours for bacteria 48 for yeast and 72 for mold. […] The microorganism strains used for the test were E. coli ATCC 8739, P. aeruginosa ATCC 9027, S. aureus ATCC 6538, C. albicans ATCC 10231, A. brasiliensis ATCC 16404. Measuring synergy between preservatives can be done by the widely described Fractional Inhibitory Concentration Index (FICI). While the MIC is defined as the lowest concentration of molecule alone or in combination that inhibited visible growth, the in vitro interactions can be quantified as FICI and calculated using the following formula: […]

The subject of experiment [2] is P. aeruginosa (ATCC 9027).
Source text: as §1

In experiment [3] the test system is Staphylococcus aureus (ATCC 6538).
Source text: as §1

The test system of experiment [4] is Candida albicans (ATCC 10231). An excerpt: (§2) Escherichia coli (ATCC 8739), Staphylococcus aureus (ATCC 6538), P. aeruginosa (ATCC 9027), Candida albicans (ATCC 10231), and Aspergillus brasiliensis (ATCC 16404) were obtained from ATCC and cultured according to the manufacturer's instructions. These microorganisms are routinely used for minimum inhibitory concentration (MIC), checkerboards and challenge tests according to the US and EU recommendations for the efficacy of preservatives in the cosmetic industry. Bacterial strains were maintained in tryptic soy agar (TSA) (Hy-labs, Rehovot, Israel), while yeast and mold strains were maintained in sabouraud dextrose agar (SDA) (Hy-labs, Israel), supplemented with oxytetracycline at a concentration of 1% (Hy-labs, Israel). […] Briefly, growth of E. coli, S. aureus, P. aeruginosa, P. gergoviea, B. cepacia, C. albicans, and A. brasiliensis was observed during incubation with two-fold serial dilutions of the abovementioned compounds in Mueller Hinton (MH) broth, using a 96-well plate (BIOFUL, Israel). For the checkerboard assay using a 96-well plate, decreasing concentrations of one compound were added from top to bottom of the plate using serial dilutions. Decreasing concentrations of the second compound were added to the plate from the right, having the highest concentration, to the left side of the plate with the lowest concentration. […] Bacteria inoculated plates were incubated for 24 h at 32° C. with shaking, while fungi inoculated plates were incubated at 23° C. for 48-72 h with shaking. Microorganism growth was evaluated by a spectrophotometer O.D. reads (BioTek, Israel). In additional exemplary procedure, MIC evaluation test with Candida albicans was performed in test tubes. Growth in this case is visually evaluated. A pure culture of a single microorganism was grown in Tryptic soy broth, or Sabouraud dextrose broth for yeast and mold. […] While the MIC is defined as the lowest concentration of molecule alone or in combination that inhibited visible growth, the in vitro interactions can be quantified as FICI and calculated using the following formula: […]

Experiment [5] has as its system Aspergillus brasiliensis (ATCC 16404).
Source text: as §2, with “In another” for “In additional”, “with A. brasiliensis” for “with Candida albicans”, “Sabouraud” for “Sabouraud dextrose”

Molecules are shown by their SMILES.

In the case of `CCCCC(CC)COCC(O)CO` (stereo not drawn) [EHG, ethylhexylglycerin], the MIC E. coli in experiment [1] was 5000 µg/mL. Besides, the MIC P. aeruginosa in experiment [2] is more than 5000 µg/mL. Moreover, the MIC S. aureus in experiment [3] turned out to be 2500 µg/mL. Also, the MIC C. albicans in experiment [4] was found to be 2500 µg/mL. In experiment [5], the MIC A. brasiliensis is 1250 µg/mL.
Take `Cc1occc(=O)c1O` [Maltol, maltol]: the MIC E. coli in experiment [1] is 5000 µg/mL. In addition, the MIC P. aeruginosa in experiment [2] worked out at 1250 µg/mL. In addition, the MIC S. aureus in experiment [3] worked out at 5000 µg/mL. In experiment [4], the MIC C. albicans was 1880 µg/mL. The MIC A. brasiliensis in experiment [5] amounted to 1250 µg/mL.
For `CC(=O)[O-].CC(=O)[O-].[Zn+2]` [Zinc Acetate, zinc acetate], in experiment [1], the MIC E. coli was 312 µg/mL. Further, the MIC P. aeruginosa in experiment [2] is 312 µg/mL. The MIC S. aureus in experiment [3] was 160 µg/mL. For the same molecule, the MIC C. albicans in experiment [4] stood at 110 µg/mL. Besides, in experiment [5], the MIC A. brasiliensis was determined as 100 µg/mL.

These data come from patent US20240298646A1, “ANTIBIOFILM PRESERVATIVE COMPOSITIONS” (SHARON PERSONAL CARE LTD., priority 2021, published 2024).
